These results are taken from US20250221966A1, “RXFP1 AGONISTS” (BRISTOL-MYERS SQUIBB COMPANY, priority 2021, published 2025).

The assay deals with T1, human RXFP1 (Homo sapiens, UniProt Q9HBX9).
T1 construct: expressed in transfected cells
T1 sequence (Q9HBX9 1-757): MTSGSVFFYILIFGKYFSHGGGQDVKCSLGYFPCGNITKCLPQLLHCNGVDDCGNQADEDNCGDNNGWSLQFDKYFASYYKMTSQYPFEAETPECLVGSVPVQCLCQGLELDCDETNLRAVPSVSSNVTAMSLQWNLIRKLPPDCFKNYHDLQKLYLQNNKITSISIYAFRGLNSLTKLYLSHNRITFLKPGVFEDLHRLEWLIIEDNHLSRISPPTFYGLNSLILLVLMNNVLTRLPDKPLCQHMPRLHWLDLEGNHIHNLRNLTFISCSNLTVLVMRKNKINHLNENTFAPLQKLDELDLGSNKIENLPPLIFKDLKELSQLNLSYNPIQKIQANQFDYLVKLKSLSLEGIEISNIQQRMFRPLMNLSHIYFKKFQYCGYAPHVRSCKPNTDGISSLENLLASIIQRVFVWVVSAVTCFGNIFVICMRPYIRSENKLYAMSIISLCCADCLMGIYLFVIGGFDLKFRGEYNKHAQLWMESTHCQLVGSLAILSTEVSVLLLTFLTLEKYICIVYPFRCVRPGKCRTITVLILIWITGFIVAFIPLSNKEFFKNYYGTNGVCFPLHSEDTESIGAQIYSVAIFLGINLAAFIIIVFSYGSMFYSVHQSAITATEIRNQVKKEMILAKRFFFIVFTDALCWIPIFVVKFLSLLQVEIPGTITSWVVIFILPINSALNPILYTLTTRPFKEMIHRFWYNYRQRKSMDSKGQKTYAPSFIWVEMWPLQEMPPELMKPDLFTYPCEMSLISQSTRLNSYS
The assay is described as follows: RXFP1 cAMP assay (hRXFP1 HEK293 cAMP assay, HTRF). Type of assay: cell-based. The settings on record: HEK293 cells stably expressing human RXFP1, 30 min at room temperature, read-out: cAMP hRXFP1 HEK293 Assay EC50. Summed up:
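In a stable human RXFP1 HEK293 line, compounds acted for 30 min at RT in buffer with 0.5 mM IBMX. HTRF then quantified cellular cAMP.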
Background: Cyclic AMP is a second messenger, typically raised through Gs and lowered through Gi signalling.

As a reminder, the EC50 is the concentration giving half of the maximal effect. Consider `COc1cc(F)c(F)cc1C(=O)N[C@@H]1C2CCC(/C2=C/c2cccc(-c3ccccc3)c2)[C@@H]1C(=O)Nc1ccc(F)c(C(F)(F)F)c1` (stereo partly drawn) [compound 15], for which the EC50 came to 110 nM.
The value for `COc1ccc(C2=NOC3COCC23)cc1C(=O)N[C@H]1[C@@H](C(=O)NCCc2ccccc2C)[C@H]2CC[C@@H]1/C2=C\C1CC1` (stereo partly drawn) [compound 520] was 19.3 nM.
`COc1ccc(-c2cccc(C(F)(F)F)n2)cc1C(=O)N[C@@H]1C2CCC(/C2=C/C2CC2)[C@@H]1C(=O)Nc1ccc(F)c(C(F)(F)F)c1` (stereo partly drawn) [compound 283]: the concentration for a half-maximal effect (EC50) was 69 nM.
On to `COc1ccc(C2=NOC3CC(C(O)C(F)(F)F)CC23)cc1C(=O)N[C@H]1[C@@H](C(=O)Nc2ccc(F)c(C(F)(F)F)c2)[C@H]2CC[C@@H]1/C2=C\C1CC1` (single isomer, unassigned) [Example 489], for which the concentration for a half-maximal effect (EC50) was 8.5 nM.
The value for `COc1ccc(-c2cc(C(OC(=O)NC34CC(C3)C4)C(F)F)ccc2F)cc1C(=O)N[C@@H]1C2CCC(/C2=C/C2CC2)[C@@H]1C(=O)Nc1ccc(F)c(C(F)(F)F)c1` (stereo partly drawn) [compound 232] was 1 nM.
Take `COc1ccc(C2=NOC3COCC23)cc1C(=O)N[C@H]1[C@@H](C(=O)NC2CCCC2)[C@H]2CC[C@@H]1/C2=C\C1CC1` (stereo partly drawn) [Example 565]: the 50% effective concentration (EC50) stood at 50.7 nM.
As to `COc1ccc(-c2ccc(C3=NOC(CO)C3)cc2F)cc1C(=O)N[C@@H]1C2CCC(/C2=C/C2CCCC2)[C@@H]1C(=O)Nc1ccc(F)c(C(F)(F)F)c1` (stereo partly drawn) [compound 897], the EC50 worked out at 1 nM.
Take `COc1ccc(-c2ccnc(N3CCOCC3)c2F)cc1C(=O)N[C@@H]1C2CCC(/C2=C/C2CC2)[C@@H]1C(=O)Nc1ccc(F)c(C(F)(F)F)c1` (stereo partly drawn) [compound 274]: the half-maximal effective concentration (EC50) stood at 16 nM.
Turning to `COc1ccc(N2CCCC(CO)C2)cc1C(=O)N[C@@H]1C2CCC(/C2=C/C2CC2)[C@@H]1C(=O)Nc1ccc(F)c(C(F)(F)F)c1` (single isomer, unassigned) [compound 705], the EC50 was 1300 nM.
Regarding `COc1ccc(-c2cc(C(=O)OC(C)(C)C)ccc2F)cc1C(=O)N[C@@H]1C2CCC(/C2=C/C(F)(F)F)[C@@H]1C(=O)Nc1ccc(F)c(C(F)(F)F)c1` (stereo partly drawn) [compound 294], the EC50 stood at 47 nM.
For `COc1ccc(C#N)cc1C(=O)N[C@H]1[C@@H](C(=O)Nc2ccc(F)c(C(F)(F)F)c2)[C@H]2CC[C@@H]1C2=C(C)C` [compound 99], the EC50 turned out to be 540 nM.
Take `COc1ccc(-c2cc(C3=NOC4CC(CO)CC34)ccc2F)cc1C(=O)N[C@H]1[C@@H](C(=O)Nc2ccc(F)c(C(F)(F)F)c2)[C@H]2CC[C@@H]1/C2=C\C1CC1` (stereo partly drawn) [compound 953]: the EC50 stood at 7 nM.
Consider `COc1ccc(C2=NOC3COCC23)cc1C(=O)N[C@H]1[C@@H](C(=O)N[C@H](C)C2CCCC2)[C@H]2CC[C@@H]1/C2=C\C1CC1` (stereo partly drawn) [compound 535], for which the concentration for a half-maximal effect (EC50) is 24 nM.
In the case of `COc1ccc(C2=NOC3COCC23)cc1C(=O)N[C@H]1[C@@H](C(=O)NC(C)C2CCC2)[C@H]2CC[C@@H]1/C2=C\C1CC1` (single isomer, unassigned) [compound 683], the EC50 was determined as 626 nM.
The value for `COc1ccc(C2=NOC(C3(O)CC3)C2)cc1C(=O)N[C@H]1[C@@H](C(=O)NCC(C)(C)C)[C@H]2CC[C@@H]1/C2=C\C1CC1` (stereo partly drawn) [compound 618] was 155 nM.
On to `COc1ccc(C2=NOC(C(=O)OC(C)(C)C)C2)cc1C(=O)N[C@@H]1C2CCC(/C2=C/C2CC2)[C@@H]1C(=O)Nc1ccc(F)c(C(F)(F)F)c1` (stereo partly drawn) [compound 386], for which the EC50 was 71 nM.
Consider `COCCOc1ccc(-c2cc(C(=O)O)ccc2F)cc1C(=O)N[C@@H]1C2CCC(/C2=C/C2CC2)[C@@H]1C(=O)Nc1ccc(F)c(C(F)(F)F)c1` (stereo partly drawn) [compound 200], for which the concentration giving a half-maximal response (EC50) was found to be 37 nM.
The value for `COc1ccc(-c2cc(C(C)CC(=O)O)ccc2F)cc1C(=O)N[C@H]1[C@@H](C(=O)Nc2ccc(F)c(C(F)(F)F)c2)[C@H]2CC[C@@H]1/C2=C\C1CC1` (stereo partly drawn) [compound 888] was 2.7 nM.
On to `COc1ccccc1/C=C1\C2CCC1[C@H](C(=O)Nc1ccc(F)c(C(F)(F)F)c1)[C@@H]2NC(=O)c1cc(F)c(F)cc1OC` (stereo partly drawn) [compound 23], for which the EC50 came out at 1400 nM.
The value for `COc1ccc(C2CCCN2)cc1C(=O)N[C@@H]1C2CCC(C2=CC2CC2)[C@@H]1C(=O)Nc1ccc(F)c(C(F)(F)F)c1` (stereo partly drawn) [compound 720] was 3140 nM.
On to `COc1ccc(C2=NOC3CC(CO)CC23)cc1C(=O)N[C@H]1[C@@H](C(=O)N[C@H](C)C2(C)CC2)[C@H]2CC[C@@H]1/C2=C\c1csc(C(F)F)n1` (stereo partly drawn) [compound 741], for which the 50% effective concentration (EC50) was found to be 1.7 nM.
As to `CCO/N=C1\C2CCC1[C@H](C(=O)Nc1ccc(F)c(C(F)(F)F)c1)[C@@H]2NC(=O)c1cc(-c2cc(C(=O)O)ccc2F)ccc1OC` (stereo partly drawn) [Example 130], the EC50 is 440 nM.
As for `COc1ccc(C2=NOC(CO)C2)cc1C(=O)N[C@H]1[C@@H](C(=O)Nc2ccc(F)c(C(F)(F)F)c2)[C@H]2CC[C@@H]1/C2=C\C1CCC1` (mixture of isomers) [Example 378, (1R,2S,3R,4R,Z)-7-(cyclobutylmethylene)-N-(4-fluoro-3-(trifluoromethyl)phenyl)-3-(5-(5-(hydroxymethyl)-4,5-dihydroisoxazol-3-yl)-2-methoxybenzamido)bicyclo[2.2.1]heptane-2-carboxamide], the 50% effective concentration (EC50) was determined as 16 nM.
Consider `CC(C)=C1C2CCC1[C@H](C(=O)Nc1ccc(F)c(C(F)(F)F)c1)[C@@H]2NC(=O)c1ccccc1N(C)C` (stereo partly drawn) [compound 119], for which the EC50 came to 3900 nM.
As for `COc1cc(F)c(F)cc1C(=O)N[C@@H]1C2CCC(/C2=C/C=C/CCO)[C@@H]1C(=O)Nc1ccc(F)c(C(F)(F)F)c1` (stereo partly drawn) [compound 67], the 50% effective concentration (EC50) came out at 1700 nM.
With `COc1ccc(C2=NOC3(CO)CCCC23)cc1C(=O)N[C@H]1[C@@H](C(=O)Nc2ccc(F)c(C(F)(F)F)c2)[C@H]2CC[C@@H]1/C2=C\C1CC1` (single isomer, unassigned) [compound 616], the concentration for a half-maximal effect (EC50) turned out to be 141 nM.
The value for `CN(C)c1c(Cl)cc(C2=NOC3COCC23)cc1C(=O)N[C@H]1[C@@H](C(=O)Nc2ccc(F)c(C(F)(F)F)c2)[C@H]2CC[C@@H]1/C2=C\C(F)(F)F` (single isomer, unassigned) [compound 556] was 41.7 nM.
The value for `COc1ccc(-c2cc(CO)ccc2F)cc1C(=O)N[C@@H]1C2CCC(/C2=C/c2cnoc2)[C@@H]1C(=O)Nc1ccc(F)c(C(F)(F)F)c1` (stereo partly drawn) [compound 176] was 57 nM; that for `COc1ccc(C2=NOC3CC(C)(CO)CC23)cc1C(=O)N[C@H]1[C@@H](C(=O)Nc2ccc(F)c(C(F)(F)F)c2)[C@H]2CC[C@@H]1/C2=C\C1CCCC1` (stereo partly drawn) [compound 748] was 3.3 nM.
Take `COc1ccc(C2CCCN2C(=O)CCO)cc1C(=O)N[C@@H]1C2CCC(C2=CC2CC2)[C@@H]1C(=O)Nc1ccc(F)c(C(F)(F)F)c1` (stereo partly drawn) [compound 634]: the 50% effective concentration (EC50) is 191 nM.
As to `COc1ccc(C2=NOC3COCC23)cc1C(=O)N[C@H]1[C@@H](C(=O)N[C@H](C)C(C)(C)C)[C@H]2CC[C@@H]1/C2=C\C1CC1` (stereo partly drawn) [compound 485], the EC50 was determined as 7.8 nM.
Turning to `COc1ccc(-c2cc(C(OC(=O)NC(C)(C)C)C(=O)O)ccc2F)cc1C(=O)N[C@H]1[C@@H](C(=O)Nc2ccc(F)c(C(F)(F)F)c2)[C@H]2CC[C@@H]1/C2=C\C1CC(F)(F)C1` (stereo partly drawn) [compound 935], the EC50 stood at 2.5 nM.
As for `O=C(N[C@H]1[C@@H](C(=O)Nc2ccc(F)c(C(F)(F)F)c2)[C@H]2CC[C@@H]1/C2=C\C1CC1)c1cc(C2=NOC3CC(CO)CC23)ccc1F` (single isomer, unassigned) [compound 723], the 50% effective concentration (EC50) was determined as 4980 nM.
Turning to `COc1ccc(C2=NOC3C(O)CC(O)C23)cc1C(=O)N[C@H]1[C@@H](C(=O)Nc2ccc(F)c(C(F)(F)F)c2)[C@H]2CC[C@@H]1/C2=C\C1CC1` (single isomer, unassigned) [compound 680], the 50% effective concentration (EC50) came out at 582 nM.
The value for `COc1ccc(-c2cc(C(OC(=O)NC3CCC3)C(F)(F)F)ccc2F)cc1C(=O)N[C@@H]1C2CCC(/C2=C/C2CC2)[C@@H]1C(=O)Nc1ccc(F)c(C(F)(F)F)c1` (stereo partly drawn) [compound 211] was 1 nM.
The value for `COc1ccc(-c2cc(C3=NOC4CC(CO)CC34)ccc2F)cc1C(=O)N[C@H]1[C@@H](C(=O)Nc2ccc(F)c(C(F)(F)F)c2)[C@H]2CC[C@@H]1/C2=C\C1CCCC1` (stereo partly drawn) [compound 950] was 4.9 nM; that for `COCc1ccccc1CNC(=O)[C@@H]1[C@H](NC(=O)c2cc(C3=NOC4COCC34)ccc2OC)[C@@H]2CC[C@H]1/C2=C/C1CC1` (stereo partly drawn) [compound 641] was 217 nM; that for `COc1ccc(-c2cc(C(F)(F)F)ccc2F)cc1C(=O)N[C@@H]1C2CCC(/C2=C/C2CC2)[C@@H]1C(=O)Nc1ccc(F)c(C(F)(F)F)c1` (stereo partly drawn) [compound 286] was 5 nM.
As for `COC(=O)N1CCN(c2ccc(OC)c(C(=O)NC3C4CCC(C4=Cc4ccccc4)C3C(=O)Nc3ccc(F)c(C(F)(F)F)c3)c2)CC1` (stereo not drawn) [Example 125], the concentration for a half-maximal effect (EC50) stood at 240 nM.
